Reference: article PMC6925768, “Determination of Anlotinib, a Tyrosine Kinase Inhibitor, in Rat Plasma by UHPLC-MS/MS and Its Application to a Pharmacokinetic Study” (Journal of Analytical Methods in Chemistry, 2019)
Where two headings read alike, the source gives them in different places.

Assays:
[1] = Stability of stock solutions; type: physicochemical; conditions: stock solution in methanol; for Stability of stock solution, long-term test: 4°C for 2 weeks; for Stability of stock solution, short-term test: room temperature for 24 hours
Experimental: (§1) The stability of three concentrations (0.25, 5, 40 ng/mL) of QCs was analyzed under typical storage conditions: (1) rat plasma stored at room temperature for 12 hours (short-term stability); (2) rat plasma stored at −80°C for 30 days (long-term stability); and (3) under three freeze-thaw cycles from −80°C to room temperature. The stability of stock solution of anlotinib and IS was analyzed under room temperature for 24 hours as well as at 4°C for 2 weeks.

[2] = test system: advanced non-small-cell lung cancer; parameters: method as in PMID 30098152; conditions: advanced non-small-cell lung cancer after second-line or further treatment; cited from earlier work
[3] = test system: human tumor xenograft models; parameters: method as in PMID 27716285; conditions: especially colon, ovarian, liver, renal, glioma, non-small-cell lung; cited from earlier work
[4] = Stability of anlotinib in rat plasma under various storage conditions; type: in vitro ADME; conditions: n = 3; for Short-term stability, Mean / Short-term stability, RE: room temperature 12 hours; for Freeze/thaw stability, Mean / Freeze/thaw stability, RE: three freeze-thaw cycles −80°C to room temperature; for Long-term stability, Mean / Long-term stability, RE: −80°C 30 days
Experimental: as §1

[5] = parameters: method as in PMID 29620050; conditions: reported literature, different dose; cited from earlier work
[6] = test system: refractory advanced non-small-cell lung cancer; parameters: method as in PMID 29438373; conditions: patients with refractory advanced non-small-cell lung cancer; cited from earlier work
[7] = Pharmacokinetic study in rats after single oral administration; type: in vivo, Sprague Dawley rats; conditions: 10 mg/kg
Experimental: Male Sprague Dawley rats weighing 250 ± 20 g were purchased from the Shanghai Laboratory Animal Co. (Shanghai, China). All experimental rats were housed in a standard cage with a humidity of 50 ± 20%, a constant temperature of 23–25°C, and a light/dark cycle condition for at least 7 days before the pharmacokinetic study. After 8 h fasting (animals had free access to water), the rats received a single oral administration with anlotinib at a dosage of 10 mg/kg. All animal experiments in present study were approved by the Institutional Animal Care and Use Committee of Wenzhou Medical University (Wenzhou, China).
Blood samples (150 μL) were collected from the tail vein before the dose and at 0.17, 0.75, 1, 1.5, 2, 3, 4, 5, 7, 9, 12, 24, and 48 h after the oral administration of anlotinib. These series of blood samples were transferred into 1.5 mL heparinized tubes. The rat blood samples were immediately centrifuged for 10 min at 5,000 rpm at 4°C, and then the separation of plasma was stored at −80°C until analysis. The noncompartmental statistical model was performed to calculate the pharmacokinetic parameters of anlotinib by Drug and Statistics 3.0 software.

[8] = male, Sprague Dawley, rat plasma, n = 6
[9] = male, Sprague Dawley, rat, plasma, po, n = 6

Structure (SMILES): Cc1ccc(NC(=O)c2ccc(CN3CCN(C)CC3)cc2)cc1Nc1nccc(-c2cccnc2)n1 [IS, Imatinib]
- Stability of stock solution, long-term test [1]: 98.73%
- Stability of stock solution, short-term test [1]: 99.35%

Structure (SMILES): COc1cc2c(Oc3ccc4[nH]c(C)cc4c3F)ccnc2cc1OCC1(N)CC1 [anlotinib, Anlotinib]
- Stability of stock solution, long-term test [1]: 95.96%
- Stability of stock solution, short-term test [1]: 98.96%
- Overall survival and progression-free survival [2]: improve overall survival (OS) and progression-free survival (PFS)
- Activity against human tumor xenograft models [3]: broad activity
- Short-term stability, Mean ([4]; 0.25 ng/ml in rat plasma): 0.26 ng/mL
- Short-term stability, RE ([4]; 0.25 ng/ml in rat plasma): 4.65%
- Freeze/thaw stability, Mean ([4]; 0.25 ng/ml in rat plasma): 0.26 ng/mL
- Freeze/thaw stability, RE ([4]; 0.25 ng/ml in rat plasma): 2.03%
- Long-term stability, Mean ([4]; 0.25 ng/ml in rat plasma): 0.25 ng/mL
- Long-term stability, RE ([4]; 0.25 ng/ml in rat plasma): −1.55%
- Autosampler stability, Mean ([4]; 0.25 ng/ml): 0.24 ng/mL
- Autosampler stability, RE ([4]; 0.25 ng/ml): −2.27%
- Short-term stability, Mean ([4]; 5 ng/ml in rat plasma): 5.21 ng/mL
- Short-term stability, RE ([4]; 5 ng/ml in rat plasma): 4.27%
- Freeze/thaw stability, Mean ([4]; 5 ng/ml in rat plasma): 4.94 ng/mL
- Freeze/thaw stability, RE ([4]; 5 ng/ml in rat plasma): −1.13%
- Long-term stability, Mean ([4]; 5 ng/ml in rat plasma): 5.19 ng/mL
- Long-term stability, RE ([4]; 5 ng/ml in rat plasma): 3.75%
- Autosampler stability, Mean ([4]; 5 ng/ml): 5.14 ng/mL
- Autosampler stability, RE ([4]; 5 ng/ml): 2.75%
- Short-term stability, Mean ([4]; 40 ng/ml in rat plasma): 41.64 ng/mL
- Short-term stability, RE ([4]; 40 ng/ml in rat plasma): 4.1%
- Freeze/thaw stability, Mean ([4]; 40 ng/ml in rat plasma): 40.55 ng/mL
- Freeze/thaw stability, RE ([4]; 40 ng/ml in rat plasma): 1.39%
- Long-term stability, Mean ([4]; 40 ng/ml in rat plasma): 41.19 ng/mL
- Long-term stability, RE ([4]; 40 ng/ml in rat plasma): 2.97%
- Autosampler stability, Mean ([4]; 40 ng/ml): 41.14 ng/mL
- Autosampler stability, RE ([4]; 40 ng/ml): 2.85%
- t1/2 [5]: 5.7 ± 3.1 h
- Progression-free survival versus placebo [6]: obvious progression-free survival (PFS) benefits
- Toxicity tolerance [6]: good toxicity tolerance
- AUC(0-inf) [7, 8]: 186 ± 49.2 ng·h/mL
- CL/F [7, 8]: 942 mL/min/kg
- MRT last ([7]; male, Sprague Dawley, rat plasma, n = 6, read-out: MRT(0-t)): 8.98 ± 1.45 h
- MRT inf ([7]; male, Sprague Dawley, rat plasma, n = 6, read-out: MRT(0-∞)): 9.2 ± 1.21 h
- half-life ([7]; male, Sprague Dawley, rat plasma, n = 6, read-out: t 1/2 z (converted)): 303 ± 37.2 min
- Cmax [7, 9]: 24.2 ± 4.31 ng/mL
- Tmax [7, 9]: 3.33 h
- AUC0-t ([7]; male, Sprague Dawley, rat, plasma, po, n = 6, read-out: AUC0-t): 184 ± 49.8 ng·h/mL
- AUC0-t ([7]; rat plasma, n = 6): 184.431 ± 49.827 ng·h/mL
- C max ([7]; rat plasma, n = 6): 24.219 ± 4.311 ng/mL
- T max ([7]; rat plasma, n = 6): 3.333 ± 0.816 h
- V/F ([7]; rat plasma, n = 6): 406.029 ± 72.748 L/kg
